Results from publication PMC11054282, “Structural Investigations on 2-Amidobenzimidazole Derivatives as New Inhibitors of Protein Kinase CK1 Delta” (Pharmaceuticals, 2024).
Where “and” joins values, the source holds several entries; their conditions need not be identical. Equal values may be shown once.

Tests used:
[1] = target: T1, truncated CK1δ (Homo sapiens, UniProt P48730); test: CK1δ luminescent kinase assay (Kinase Glo kit); format: biochemical; details: for IC50: truncated recombinant human CK1δ (aa 1-294), casein substrate, 2 μM ATP, mean ± SE of three independent experiments in duplicate
T1 construct: truncated CK1δ, recombinant human, GST-tagged, aa 1-294, Merck Millipore; GST; purchased Merck Millipore, Merck KGaA, Darmstadt, Germany
T1 sequence (P48730 1-294): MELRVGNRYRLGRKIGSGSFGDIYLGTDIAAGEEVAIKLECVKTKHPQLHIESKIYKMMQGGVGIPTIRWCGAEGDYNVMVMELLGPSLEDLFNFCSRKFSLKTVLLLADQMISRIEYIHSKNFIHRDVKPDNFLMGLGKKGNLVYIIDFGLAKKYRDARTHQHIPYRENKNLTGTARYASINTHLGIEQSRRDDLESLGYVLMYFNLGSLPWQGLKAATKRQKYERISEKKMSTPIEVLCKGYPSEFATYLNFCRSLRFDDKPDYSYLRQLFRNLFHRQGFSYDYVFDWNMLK
Experimental: The newly synthesized derivatives 1–32 were tested on truncated CK1δ using the luminescent kinase assay Kinase Glo® KIT (Promega Italy S.r.l., Milan, Italy), and the results are reported in Table 1 and Table 2. Derivatives were tested at a fixed dose of 40 μM; then, those showing a residual kinase activity percentage lower than 50% were tested at 10 μM.
The inhibitory activity of synthesized compounds on CK1δ has been carried out following a procedure for a luminescence-based assay (KinaseGlo® kit, Promega Italy Srl, Milan, Italy) already reported in the literature. Luminescent assays were performed in white 96-well plates in a 40 μL final volume. The buffer used is a milliq water solution of 50 mM HEPES (pH 7.5), 1 mM EDTA, 1 mM EGTA, and 15 mM MgCl2. In a typical assay, 10 μL of inhibitor solution (desired concentrations were obtained by diluting in buffer a starting 10 mM solution in DMSO) and 10 μL of enzyme solution (truncated CK1δ, recombinant human, GST-tagged, aa 1-294, Merck Millipore, Merck KGaA, Darmstadt, Germany) were added to the well, followed by 20 μL of assay buffer containing casein substrate (casein solution from bovine milk, 5% in water, Sigma-Aldrich, Merck KGaA, Darmstadt, Germany) and ATP, at a final concentration of 0.05% and 2 μM, respectively. The final enzyme concentration was 6.5 nM. […] After 60 min of incubation at 30 °C, the enzymatic reactions were stopped with the addition of 40 μL of KinaseGlo reagent (Promega Italy Srl, Milan, Italy). The luminescence signal (relative light unit, RLU) was recorded after 10 min at 25 °C using a Tecan Infinite M100. […] IC50 values were evaluated using ten different inhibitor concentrations ranging from 100 to 0.026 μM. Data were analyzed using Excel and GraphPad Prism software (version 8.0).

[2] = tested on: CK1δ; details: compound IV (SR 2890), Figure 1; read-out: CK1δ IC50; cited from earlier work

Row | SMILES | IC50 [1] | melting point | fold less potent than the regioisomer 18 (CK1δ) ([1]; 19 (4-NO2) versus 18 (5-NO2)) | IC50 [2]
1 | Cc1ccc2[nH]c(NC(=O)c3cc[nH]n3)nc2c1 [Compound 8, N-(5(6)-Methyl-1H-benzimidazol-2-yl)-1H-pyrazole-3(5)-carboxamide] | > 40 µM | > 300 °C |  | 
2 | O=C(Nc1nc2cc([N+](=O)[O-])ccc2[nH]1)c1cc[nH]n1 [Compound 12, N-(5(6)-Nitro-1H-benzimidazol-2-yl)-1H-pyrazole-3(5)-carboxamide] | > 40 µM | > 300 °C |  | 
3 | O=C(Nc1nc2cc(C(F)(F)F)ccc2[nH]1)c1cc[nH]n1 [Compound 10, 1H-Pyrazole-N-(5(6)-trifluoromethyl-1H-benzimidazol-2-yl)-3(5)-carboxamide] | > 40 µM | > 300 °C |  | 
4 | CC(C)(C)c1ccc2[nH]c(NC(=O)Cc3cc[nH]n3)nc2c1 [Compound 20, N-(5(6)-terButyl-1H-benzimidazol-2-yl)(1H-pyrazol-3(5)-yl)-2-acetamide] | 1 ± 0.18 µM |  |  | 
5 | O=C(Cc1cc[nH]n1)Nc1nc2cc(NC(=O)c3ccccc3)ccc2[nH]1 [Compound 28, N-(2-(2-(1H-Pyrazol-3-yl)acetamido)-1H-benzimidazol-3(5)-yl)benzamide] | > 40 µM | 292 to 293 °C |  | 
6 | O=C(Cc1cc[nH]n1)Nc1nc2c(NC(=O)c3ccccc3)cccc2[nH]1 [Compound 29, N-(2-(2-(1H-Pyrazol-3-yl)acetamido)-1H-benzimidazol-4(7)-yl)benzamide] | > 40 µM | 280 °C (dec.) |  | 
7 | O=C(Cn1ccc(C(=O)Nc2nc3cc(Cl)ccc3[nH]2)n1)c1ccccc1 [Compound 3, N-(5(6)-Chloro-1H-benzimidazol-2yl)-1-(2-oxo-2-phenylethyl)-1H-pyrazole-3-carboxamide] | < 15 µM and 1.8 µM | 200 to 203 °C |  | 
8 | COc1ccc2[nH]c(NC(=O)Cc3cc[nH]n3)nc2c1 [Compound 17, N-(5(6)-Methoxy-1H-benzimidazol-2-yl)-2-(1H-pyrazol-3(5)-yl)acetamide] | 6.27 ± 0.95 µM | 239 to 240 °C |  | 
9 | Cc1ccc2[nH]c(NC(=O)c3ccn(CC(=O)c4ccccc4)n3)nc2c1 [Compound 2, N-(5(6)-Methyl-1H-benzimidazol-2yl)-1-(2-oxo-2-phenylethyl)-1H-pyrazole-3-carboxamide] | < 15 µM and 14.6 µM | 199 to 200 °C |  | 
10 | COc1ccccc1C(=O)Cn1ccc(C(=O)Nc2nc3cc(C)ccc3[nH]2)n1 [Compound 5, N-(5(6)-Methyl-1H-benzimidazol-2yl)-1-(2-(2-methoxyphenyl)-2-oxoethyl)-1H-pyrazole-3-carboxamide] | > 40 µM | 201 to 203 °C |  | 
11 | O=C(Nc1nc2ccccc2[nH]1)c1cc[nH]n1 [Compound 7, N-(1H-Benzimidazol-2-yl)-1H-pyrazole-3(5)-carboxamide] | > 40 µM | > 300 °C |  | 
12 | O=C(Cc1cc[nH]n1)Nc1nc2cc(OC(F)(F)F)ccc2[nH]1 [Compound 21, 2-(1H-Pyrazol-3(5)-yl)-N-(5(6)-trifluoromethoxy-1H-benzimidazol-2-yl)acetamide] | 5.99 ± 0.87 µM | 270 to 274 °C |  | 
13 | O=C(Cc1cc[nH]n1)Nc1nc2cc(Cl)ccc2[nH]1 [Compound 15, N-(5(6)-Cloro-1H-benzimidazol-2-yl)-2-(1H-pyrazol-3(5)-yl)acetamide] | 0.485 ± 0.31 µM | 286 to 288 °C |  | 
14 | O=C(Cc1cc[nH]n1)Nc1nc2c([N+](=O)[O-])cccc2[nH]1 [Compound 19, N-(4(7)-Nitro-1H-benzimidazol-2-yl)(1H-pyrazol-3(5)-yl)-2-acetamide] | 1.22 ± 0.23 µM | 280 to 282 °C | 10 fold | 
15 | O=C(Cc1cc[nH]n1)Nc1nc2cc(Cl)c(Cl)cc2[nH]1 [Compound 22, N-(5,6-Dichloro-1H-benzimidazol-2-yl)-2-(1H-pyrazol-3(5)-yl)acetamide] | 0.98 ± 0.35 µM | > 300 °C |  | 
16 | O=C(Nc1nc2cc(Cl)ccc2[nH]1)c1cc[nH]n1 [Compound 9, N-(5(6)-Chloro-1H-benzimidazol-2-yl)-1H-pyrazole-3(5)-carboxamide] | > 40 µM | > 300 °C |  | 
17 | Fc1cccc(-n2cnc3c(NCc4nc5ccc(Cl)cc5[nH]4)nc(N4CCNCC4)nc32)c1 [IV] |  |  |  | 0.005 µM

Row | SMILES | IC50 [1] | melting point | fold less potent than the regioisomer 18 (CK1δ) ([1]; 19 (4-NO2) versus 18 (5-NO2)) | IC50 [2]
18 | N#Cc1ccc2[nH]c(NC(=O)Cc3cc[nH]n3)nc2c1 [Compound 23, N-(5(6)-Cyano-1H-benzimidazol-2-yl)(1H-pyrazol-(3)5-yl)-2-acetamide] | 0.0986 ± 0.0394 µM | 267 to 268 °C |  | 
19 | NS(=O)(=O)c1ccc2[nH]c(NC(=O)Cc3cc[nH]n3)nc2c1 [Compound 25, 2-(1H-Pyrazol-3(5)-yl)-N-(5(6)-sulfamoyl-1H-benzimidazol-2-yl)acetamide] | > 40 µM | 285 to 287 °C |  | 
20 | NC(=O)c1ccc2[nH]c(NC(=O)Cc3cc[nH]n3)nc2c1 [Compound 24] | 2.53 ± 0.38 µM | 290 to 292 °C |  | 
21 | Cc1ccc2[nH]c(NC(=O)Cc3cc[nH]n3)nc2c1 [Compound 14, N-(5(6)-Methyl-1H-benzimidazol-2-yl)-2-(1H-pyrazol-3(5)-yl)acetamide] | 1.64 ± 0.31 µM | 257 °C (dec.) |  | 
22 | O=C(Cc1cc[nH]n1)Nc1nc2cc([N+](=O)[O-])ccc2[nH]1 [Compound 18, N-(5(6)-Nitro-1H-benzimidazol-2-yl)(1H-pyrazol-3(5)-yl)-2-acetamide] | 0.12 ± 0.083 µM | 272 to 274 °C |  | 
23 | CC(=O)Nc1ccc2[nH]c(NC(=O)Cc3cc[nH]n3)nc2c1 [Compound 27, N-(5(6)-Acetamido-1H-benzimidazol-2-yl)(1H-pyrazol-3(5)-yl)acetamide] | > 40 µM |  |  | 
24 | COc1ccc2[nH]c(NC(=O)c3cc[nH]n3)nc2c1 [Compound 11, N-(5(6)-Methoxy-1H-benzimidazol-2-yl)-1H-pyrazole-3(5)-carboxamide] | > 40 µM | > 300 °C |  | 
25 | Cn1c(NC(=O)Cc2cc[nH]n2)nc2ccc(Cl)cc21 [Compound 32, N-(6-Chloro-1-methyl-benzimidazol-2-yl)(1H-pyrazol-3(5)-yl)acetamide] | 20.1 ± 7.3 µM |  |  | 
26 | COc1ccccc1C(=O)Cn1ccc(C(=O)Nc2nc3ccccc3[nH]2)n1 [Compound 4, N-(1H-Benzimidazol-2yl)-1-(2-(2-methoxyphenyl)-2-oxoethyl)-1H-pyrazole-3-carboxamide] | > 40 µM | 168 to 170 °C |  | 
27 | O=C(Cn1ccc(C(=O)Nc2nc3ccccc3[nH]2)n1)c1ccccc1 [Compound 1, N-(1H-Benzimidazol-2yl)-1-(2-oxo-2-phenylethyl)-1H-pyrazole-3-carboxamide] | > 40 µM | 220 to 221 °C |  | 
28 | O=C(Cc1cc[nH]n1)Nc1nc2cc(C(F)(F)F)ccc2[nH]1 [Compound 16, 2-(1H-Pyrazol-3(5)-yl)-N-(5(6)-trifluoromethyl-1H-benzimidazol-2-yl)acetamide] | 1.74 ± 0.32 µM | 275 to 277 °C |  | 
29 | CNS(=O)(=O)c1ccc2[nH]c(NC(=O)Cc3cc[nH]n3)nc2c1 [Compound 26] | < 15 µM and 10.7 µM | 238 to 240 °C |  | 
30 | O=C(Cc1cc[nH]n1)Nc1nc2cc(-c3nnn[nH]3)ccc2[nH]1 [Compound 31, N-(5(6)-(1H-tetrazol-5-yl)-1H-benzimidazol-2-yl)(1H-pyrazol-3(5)-yl)acetamide] | < 15 µM and 1.54 µM | > 300 °C |  | 
31 | O=C(Cc1cc[nH]n1)Nc1nc2ccccc2[nH]1 [Compound 13, N-(1H-benzimidazol-2-yl)-2-(1H-pyrazol-3(5)-yl)acetamide] | 4.21 ± 1.92 µM | 295 to 297 °C |  | 
32 | O=C(Cc1cc[nH]n1)Nc1nc2cc(-n3cncn3)ccc2[nH]1 [Compound 30, N-(5(6)-(1H-1,2,4-triazol-1-yl)-1H-benzimidazol-2-yl)(1H-pyrazol-3(5)-yl)acetamide] | < 15 µM and 2.59 µM | 269 to 271 °C |  | 
33 | COc1ccccc1C(=O)Cn1ccc(C(=O)Nc2nc3cc(Cl)ccc3[nH]2)n1 [Compound 6, N-(5(6)-Chloro-1H-benzimidazol-2yl)-1-(2-(2-methoxyphenyl)-2-oxoethyl)-1H-pyrazole-3-carboxamide] | < 15 µM and 13.2 µM | 219 to 221 °C |  | 
